Experimental data from patent US7294625B2, “Pyrazole compounds” (Ube Industries, Ltd., priority 2002, dated 2007).
pIC50: −log10 of the molar value.

Legend:
p38MAP kinase = target: T1, p38MAP kinase (Homo sapiens, UniProt Q16539); assay: Enzyme inhibitory test against p38MAP kinase; assay type: biochemical; settings: active type p38MAP kinase, EGFR peptide substrate, [γ-32P]ATP, 30° C. 30 minutes; read-out: p38MAP kinase inhibition IC50 value
T1 construct: purchased Stratagene (p38MAP kinase); Upstate (SKK/MKK6) #206145 (p38MAP kinase); #14-225 or #14-303 (SKK/MKK6)
T1 sequence (Q16539 whole entry): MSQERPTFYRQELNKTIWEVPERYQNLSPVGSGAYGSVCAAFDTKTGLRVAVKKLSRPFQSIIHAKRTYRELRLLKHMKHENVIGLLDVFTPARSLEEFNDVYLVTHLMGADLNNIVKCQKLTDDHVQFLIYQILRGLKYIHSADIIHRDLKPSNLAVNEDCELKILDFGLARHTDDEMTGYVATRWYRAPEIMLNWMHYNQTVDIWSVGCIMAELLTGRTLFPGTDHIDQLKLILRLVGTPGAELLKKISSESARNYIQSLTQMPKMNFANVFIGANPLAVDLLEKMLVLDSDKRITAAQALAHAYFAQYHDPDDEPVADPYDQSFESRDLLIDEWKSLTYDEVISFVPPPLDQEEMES
Experimental: Test Example 1 Enzyme Inhibitory Test Against p38MAP Kinase
(1) Preparatoin of Active Type p38MAP Kinase
An active type p38MAP kinase was prepared by incubation in a reaction solution (25 mM Tris-HCl pH 7.5, 5 mM β-glycerolphosphate, 2 mM DTT, 0.1 mM […], 10 mM MgCl2, 1 mM ATP) containing p38MAP kinase (Stratagene, #206145) and SKK/MKK6 (Upstate, #14-225 or #14-303) at 30° C. for 1 to 3 hours. This enzyme solution was diluted 5 to 10-fold with Stock Buffer (50 mM Tris-HCl pH 7.5, 0.1 mM EGTA, 0.2 mM Orthovanadate, 0.1% 2-ME, 10% glycerol, 0.03% Brij-35, 0.5 μM Microcystin), and preserved under freezing (−80° C.).
(2) Measurement of Inhibitory Activity of p38MAP Kinase
To 34 μL of a reaction solution (25 mM HEPES, pH 7.5, 10 mM Magnesium acetate) containing the active type p38MAP kinase prepared as mentioned above and a substrate (final concentration: […] EGFR; […]) was added 1 μL of DMSO, or a compound to be tested and dissolved in DMSO, then, the mixture was subjected to preincubation at 4° C. for 30 minutes. A reaction was started by adding 5 μL of an ATP solution (400 μM ATP, 1 μCi/μL [γ-^32P]ATP), and reacted at 30° C. for 30 minutes, and then, the reaction was stopped by adding 5 μL of 250 mM H3PO4. 25 μL of the reaction solution was placed on chromatography paper (Whatman, #P81), dried for about 2 minutes, and washed with 75 mM H3PO4. Water was removed by using 95% ethanol, it was transferred to a bial containing liquid scintillation cocktail (available from Nacalai Tesque), and radioactivity was measured. A concentration (IC50 value) of a compound to be tested necessary for inhibiting 50% of phosphrylation (^32P) of the substrate by the enzyme was calculated as compared to that non-treated by the compound to be tested by XL-fit (available from IDBS).

[1] = system: rat adjuvant arthritis model; assay: Anti-inflammatory effect in rat adjuvant arthritis model; assay type: in vivo; settings: LEW rats, 3 mg/Kg oral once a day
Experimental: Test Example 4 Anti-inflammatory Effect in Rat Adjuvant Arthritis Model
Heat-killed bacteria of Mycobacterium butyricum (available from Difco) were pulverized by agate mortar, and this was suspended in dry-heat sterilized liquid paraffin (available from Wako Pure Chemical Industries, Ltd.) so as to have 10 mg/ml, and subjected to ultrasonic wave treatment to obtain an adjuvant. 500 μg/50 μl/paw of the adjuvant was administered into right hind paw of LEW series rats (female, 7-weeks old, available from Charles River Japan, Inc.) under isoflurane (Forane, available from Abbott Japan) inhalation anesthesia to induce adjuvant arthritis. Also, liquid paraffin containing no dead bacteria was also administered in the same manner as mentioned above to prepare a non-treatment group.
The test compound was suspended in a 0.5% aqueous sodium carboxymethyl cellulose solution, or dissolved in distilled water for injection, and orally administered at a dose of 10 ml/kg once a day from the injected day of the adjuvant (0th day) to 27th day.
After 7th, 14th, 21st and 28th day from administration of the adjuvant, volumes of the right hind paw to which the adjuvant had been administered and of left hind paw to which no adjuvant had been administered were measured by a plethysmometer (TK-101CMP, UNICOM). An edema ratio was calculated from the following equation. Edema ratio (%)=[(volume of hind paw at the time of measurement)/(volume of hind paw before initiation of the test)−1]×100 Moreover, edema suppressive ratio based on the control group to which the vehicle was administered was calculated from the following equation. Edema suppressive ratio (%)=[1-{(edema ratio of test compound-administered group)−(edema ratio of non-treated group)}/{(edema ratio of control group)−(edema ratio of non-treatment group)}]×100 The test results are shown in Table 8.

[2] = system: cytokine (IL-1β and TNF-α) induced IL-6 production; assay: Inhibition of IL-6 production in rat (in vivo); settings: LEW rats, 3 mg/Kg oral, 1 hour before IL-1β/TNF-α i.v., serum IL-6 two hours later
Experimental: Test Example 3 Inhibition of IL-6 Production in Rat (In Vivo)
A cytokine mixed solution of IL-1β and TNF-α was intravenously injected to rats to induce production of IL-6. A mixed solution of IL-1β (available from R&D) (4 μg/ml) and TNF-α (available from R&D) (2 μg/ml) dissolved in PBS was administered to tail vein of LEW series rats (female, body weight: about 140 to 170 g, available from Charles River Japan, Inc.) fasted overnight with a ratio of 1 ml/kg of the body weight. Two hours later, blood was collected from the neck vein under ether anesthesia. The collected blood was centrifuged under the conditions of 20° C. and 10,000×g to separate serum. IL-6 concentration in the serum was measured by using an enzyme-linked immunosorbent assay (ELISA) kit (IL-6 ELISA KIT, available from R&D).
The test compound or the vehicle was orally administered with a dose of 10 ml/kg of the body weight before 1 hour of the injection of the cytokine mixed solution. The control group to which the vehicle was administered and the group of the compound to be tested were each 5 rats per group. An inhibitory ratio of the group of the compound to be tested based on control group was calculated.

[3] = system: LPS-induced TNF-α production in human PBMC; assay: Inhibition of TNF-α production in human PBMC (in vitro); assay type: cell-based; settings: LPS 10 μg/ml, 18 hours, TNF-α ELISA, read-out: Inhibitory effect on LPS-induced TNF-α production in human PBMC IC50 value
Experimental: Test Example 2 Inhibition of TNF-α Production in Human PBMC (In Vitro)
Test was carried out according to the method of Welker et al. (Int. Arch. Allergy Immunol., 109, 110-115 (1996).
Heparin-added blood collected from healthy volunteer with consent was underlayed with a specific gravity-separating solution (Lymphoprep; available from Daiichi Pure Chemicals Co., Ltd.), subjected to centrifugation (800×g, 25 minutes), and a mononuclear cell layer was recovered. The obtained mononuclear cells (human PBMC) were washed twice with PBS (available from SIGMA), and resuspended in 1% FCS-containing RPMI aqueous solution (available from GIBCO) so that the cells became 5×10^6 cells/mL. The thus obtained cell suspension was diluted 10-fold with 1% FCS-containing RPMI medium, DMSO (or the compound to be tested) with a final concentration of 0.5% was added thereto, and cultured at 37° C. in 5% CO2 for 1 hour. After that, LPS (derived from E. Coli 055:5B, available from SIGMA) solution prepared by PBS was added so that the final concentration thereof being 10 μg/ml, and cultivation was carried out for further 18 hours. After the cultivation, culture medium was subjected to centrifugation (800×g, 10 minutes), and a concentration of TNF-α produced in the supernatant was measured by an enzyme-linked immunosorbent assay (ELISA) kit (TNF-α ELISA Kit, available from R&D). The concentration (IC50 value) of the test compound for inhibiting 50% of TNF-α production was calcualted by using XL-fit (available from IDBS).

| Structure (SMILES) | pIC50 (p38MAP kinase) | left hind paw edema suppressive ratio (%) @3 mg/Kg ([1]; 21st day) | 28th day left hind paw edema suppressive ratio (%) @3 mg/Kg [1] | Rat cytokine induced IL-6 production inhibiting ratio (%) @3 mg/Kg [2] [%] | pIC50 [3] |
| --- | --- | --- | --- | --- | --- |
| CNc1cc(-c2cn(-c3ccc4nncn4n3)nc2-c2ccc(F)cc2)ccn1 [Example 13, 3-(4-Fluorophenyl)-4-(2-methylaminopyridin-4-yl)-1-([1,2,4]triazolo[4,3-b]pyridazin-6-yl)-1H-pyrazole] | 7.54 | 79 (21st day) % | – | – | – |
| Nc1cc(-c2cn(-c3ccc4nncn4n3)nc2-c2ccc(F)cc2)ccn1 [Example 8, 4-(2-Aminopyridin-4-yl)-3-(4-fluorophenyl)-1-([1,2,4]triazolo[4,3-b]pyridazin-6-yl)-1H-pyrazole] | 8.13 | – | 79 (28th day) % | – | – |
| Nc1cc(-c2cn(C3=NNC(=O)CC3)nc2-c2ccccc2)ccn1 [Example 49, 4-(2-Aminopyridin-4-yl)-1-(1,4,5,6-tetrahydro-6-oxopyridazin-3-yl)-3-phenyl-1H-pyrazole] | 8.15 | – | – | 84 | – |
| Fc1ccc(-c2nn(-c3ccc4nncn4n3)cc2-c2ccnc(NCC(F)(F)F)c2)cc1 [Example 16, 3-(4-Fluorophenyl)-1-([1,2,4]triazolo[4,3-b]pyridazin-6-yl)-4-[2-(2,2,2-trifluoroethyl)aminopyridin-4-yl]-1H-pyrazole] | 8.70 | – | – | 97 | – |
| Nc1cc(-c2cn(-c3ccc4nncn4n3)nc2-c2ccccc2F)ccn1 [Example 42, 4-(2-Aminopyridin-4-yl)-3-(2-fluorophenyl)-1-([1,2,4]triazolo[4,3-b]pyridazin-6-yl)-1H-pyrazole] | 8.02 | – | – | 73 | – |
| Nc1cc(-c2cn(-c3ccc(=O)[nH]n3)nc2-c2ccccc2)ccn1 [Example 20, 4-(2-Aminopyridin-4-yl)-1-(1,6-dihydro-6-oxopyridazin-3-yl)-3-phenyl-1H-pyrazole] | – | – | – | 78 | – |
| Nc1cc(-c2cn(-c3ccc(=O)[nH]n3)nc2-c2ccc(F)cc2)ccn1 [Example 2, 4-(2-Aminopyridin-4-yl)-3-(4-fluorophenyl)-1-(1,6-dihydro-6-oxopyridazin-3-yl)-1H-pyrazole] | 8.60 | – | 83 (28th day) % | – | 7.62 |
| Fc1ccc(-c2nn(-c3ccc4nncn4n3)cc2-c2ccncc2)cc1 [Example 5, 3-(4-Fluorophenyl)-4-(pyridin-4-yl)-1-([1,2,4]triazolo[4,3-b]pyridazin-6-yl)-1H-pyrazole] | 7.60 | – | – | 92 | 8.40 |
| Nc1cc(-c2cn(-c3ccc(=O)[nH]n3)nc2-c2ccccc2F)ccn1 [Example 26, 4-(2-Aminopyridin-4-yl)-3-(2-fluorophenyl)l-1(1,6-dihydro-6-oxopyridazin-3-yl)-1H-pyrazole] | – | – | – | 77 | – |
| CNc1cc(-c2cn(-c3ccc(=O)[nH]n3)nc2-c2ccc(F)cc2)ccn1 [Example 3, 3-(4-Fluorophenyl)-1-(1,6-dihydro-6-oxopyridazin-3-yl)-4-(2-methylaminopyridin-4-yl)-1H-pyrazole] | – | – | – | 81 | – |
